Assays:
LNCaP cells = experiment: Induction of apoptosis in LNCaP cells (PARP cleavage, Caspase-3 activity); format: cell-based, human; settings: 24 hours (FIG. 2)
normal DNA = settings: Oncotest; cited from earlier work

Structure (SMILES)	apoptosis as determined by cleavage of PARP and induction of Caspase-3 (LNCaP cells)	effect on normal DNA (normal DNA)
CCc1ccc2c3[nH]c4ccccc4c3cc[n+]2c1 [flavopereirine]	induction of apoptosis	no effect on normal DNA
COC(=O)C1=CO[C@@H](C)[C@@H]2Cn3ccc4c5ccccc5nc-4c3C[C@H]12 [alstonine]	relatively minor effect	no effect on normal DNA

Source: patent publication US20090215853A1, “Flavopereirine and alstonine combinations in the treatment and prevention of prostate cancer” (Natural Source International, priority 2004, published 2009)
